# Measurements from patent US10722484B2, “Methods of cancer treatment” (K-Gen, Inc., priority 2016, dated 2020).
# Key:
# [1] = test system: Panc2.13; assay: Combination viability/proliferation assays; format: cell-based; details: for Combination effect, Panc2.13: K101A: agent in combination with K101A
# Method: (§1) A 96-well MacSynergy II format for combination test was also used. […] The analysis was done with the SQRT(Data) scale and the four parameter Hill curve was fitted using XLfit5.1 (the MacSynergy II Excel Spreadsheet) for the inhibition data. Synergy (positive number) or Antagonism (negative number) volumes were calculated. […] Three-dimensional MacSynergy II graphs were generated where positive values indicated synergism and negative values indicated antagonism.
# [2] = test system: A549 lung cancer cell line; assay: Combination viability/proliferation assays (384-well IC50 ratio, 96-well MacSynergy II); format: cell-based; details: for effect in combination with the PKC activator compounds in inhibiting the growth of A549 cells: PKC activator compounds (K101A, K101E, K102); for Combination in A549: K101A (synergism/antagonism): agent assayed in combination with K101A; for Combination in A549: K101A (synergism/antagonism) / Combination in A549: K102 (synergism/antagonism): * 2-3 concentrations, # full concentration ranges; for Combination in A549: K102 (synergism/antagonism): agent assayed in combination with K102
# Method: as §1
# [3] = test system: HL-60 human promyelocytic leukemia cells; assay: Combination viability/proliferation assays
# Method: Briefly, cells at density of 1,000-10,000 cells/well in 96-well plates or 200-1600 cells/well in 384-well plates were seeded and incubated at 37° C. for 24 hours before addition of compounds. A series of 9 different concentrations of compound stocks (500×) were prepared by 3-fold serial dilutions in DMSO. […] After 96 hours of incubation, 35 μL or 50 μL of CellTiter Glo reagent (Promega) was added to each well and luminescence was measured after 10 minutes using EnVision (PerkinElmer). Luminescence from cells treated with DMSO alone was set as Max and % of inhibition was calculated as follows: Inhibition %=(Max-Sample value)/Max*100. Data were analyzed using XLfit software (ID Business Solutions Ltd.) or GraphPad software and IC50, relative IC50, and % of top inhibition were calculated.
# The top concentration for the tested PKC activator compound was set at roughly the IC50 when the same testing compound was used as a single agent assayed in the same cell line. The next dose was either 3-fold or 10-fold dilution from the top concentration.
# [4] = A549, in combination with 0.013 μM K102
# [5] = A549, in combination with 0.04 μM K102
# [6] = A549, in combination with 0.33 uM K101A
# [7] = A549, in combination with 1 uM K101A
Structure (SMILES),"Combination effect, Panc2.13: K101A [1]","Ratio ([…] DMSO IC50/combination IC50) ([2]; A549, in combination with 0.0002 μM K102, NC: no change)","Ratio ([…] DMSO IC50/combination IC50) ([2]; A549, in combination with 0.002 μM K102, NC: no change)","Ratio ([…] DMSO IC50/combination IC50) ([2]; A549, in combination with 0.005 μM K101A, NC: no change)","Ratio ([…] DMSO IC50/combination IC50) ([2]; A549, in combination with 0.02 μM K102, NC: no change)","Ratio ([…] DMSO IC50/combination IC50) ([2]; A549, in combination with 0.05 μM K101A, NC: no change)","Ratio ([…] DMSO IC50/combination IC50) ([2]; A549, in combination with 0.5 μM K101A, ratio >2 synergistic, <0.5 antagonistic, NC: no change)",effect in combination with the PKC activator compounds in inhibiting the growth of A549 cells [2],Combination in A549: K101A (synergism/antagonism) ([2]; A549),"Combination in A549: K101E (synergism/antagonism) ([2]; agent assayed in combination with K101E, A549)",Combination in A549: K102 (synergism/antagonism) ([2]; A549),"effect in combination with K101A ([1]; Panc2.13, K101A at 1 μM or at 0.67 μM)","Ratio ([…] DMSO IC50/combination IC50) [2, 4]","Ratio ([…] DMSO IC50/combination IC50) [2, 5]","Ratio ([…] DMSO IC50/combination IC50) [2, 6]","Ratio ([…] DMSO IC50/combination IC50) [2, 7]",effect in combination with K101A or K102 in inhibiting the growth of A549 cells [2],increase of potency in inhibiting growth ([3]; combined with K101A (0.3 μM) or K102 (0.005 μM)),effect in combination with K101A and K102 [3]
"NC1(c2ccc(-c3nc4ccn5c(=O)[nH]nc5c4cc3-c3ccccc3)cc2)CCC1 [MK2206, 8-[4-(1-aminocyclobutyl)phenyl]-9-phenyl-2H-[1,2,4]triazolo[3,4-f][1,6]naphthyridin-3-one]",None,0.81,3.13,0.68,5.57,2.13,6.03,strong synergy,Synergism (strong),Synergism,Synergism (strong),,,,,,,,
"O=C1[C@H](Cc2ccc(O)cc2)N2C(=O)CCN(C(=O)NCc3ccccc3)[C@H]2CN1Cc1cccc2ccccc12 [ICG-001, (6S,9aS)-Hexahydro-6-[(4-hydroxyphenyl)methyl]-8-(1-naphthalenylmethyl)-4,7-dioxo-N-(phenylmethyl)-2H-pyrazino[1,2-a]pyrimidine-1(6H)-carboxamide]",Synergism,,,,,,,insignificant synergism or antagonism,None,,None,strong synergy,0.96,1.10,1.05,1.10,did not show synergy,,
Cc1nc(Nc2ncc(C(=O)Nc3c(C)cccc3Cl)s2)cc(N2CCN(CCO)CC2)n1 [Dasatinib],,,,,,,,,,,,,,,,,,more than 10 fold,
"Cc1sc2c(c1C)C(c1ccc(Cl)cc1)=NC(CC(=O)OC(C)(C)C)c1nnc(C)n1-2 (racemic) [(±)-JQ1, tert-butyl 2-(4-(4-chlorophenyl)-2,3,9-triMethyl-6H-thieno[3,2-f][1,2,4]triazolo[4,3-a][1,4]diazepin-6-yl)acetate]",,,,,,,,,Antagonism,,Antagonism,,0.55,0.57,0.27,0.09,strong antagonist effect,,moderate or minor synergistic/additive effect
